How the values were obtained:
[1] = test system: neuronal cells infected with LV-α-synuclein; experiment: Calcein assay of membrane integrity (FLIPR); type: cell-based; conditions: for Percent reversal of α-Syn mediated disruption of cell integrity (0.01 μM test compound): calcein assay
Description: (§1) Next, to ascertain the effects on neuronal activity, cells were infected with LV-α-synuclein for 24 h, treated with Example 2 at 0, 0.01, 0.1 and 1 μM for 24 h in serum free media, loaded with Fluo-4 or calcein, and analyzed by FLIPR assay to determine Ca^2+ and calcein levels. […] Finally, to examine the effects Example 2 on neuronal survival, an MTT cell viability assay was performed. […] All cell free and cell based assays were repeated at least 3 times and experiments were performed blinded to sample identity.

[2] = molecular target: Recombinant α-synuclein (Homo sapiens, UniProt P37840); experiment: Cell-free α-synuclein aggregation assay (SDS-PAGE, immunoblot); type: biochemical; conditions: 10 μM α-synuclein, 37° C. 16 h then 56° C. 6 h, immunoblot (FIG. 1)
Description: Recombinant α-synuclein (10 μM) are incubated at 37° C. for 16 h and then at 56° C. for 6 h with test compound. […] After incubation, the mixture is run on a SDS-PAGE gel, followed by immunoblot testing with α-synuclein antibodies.

[3] = molecular target: T1, α-synuclein (wild type) expressed by lentivirus in a neuronal cell line (Homo sapiens, UniProt P37840); experiment: Cell-based α-synuclein aggregation by immunoblot; conditions: soluble and insoluble fractions; test compound 0, 0.1, 1 and 10 μM for 24 h
T1 construct: expressed in transfected cells

[4] = molecular target: T1, α-synuclein (wild type) expressed by lentivirus in a neuronal cell line; experiment: Cell-based α-synuclein accumulation by confocal microscopy; conditions: test compound 0, 0.1, 1 and 10 μM for 24 h (FIG. 2)
[5] = test system: Neuronal cells expressing high levels of α-synuclein; experiment: Neurite outgrowth (Tubulin III antibody); type: cell-based; conditions: 0.1 and 1.0 μM (FIG. 3A)
[6] = test system: neuronal cells infected with LV-α-synuclein; experiment: Ca2+ levels by FLIPR assay (Fluo-4); type: cell-based; conditions: 0, 0.01, 0.1 and 1 μM for 24 h in serum free media, Fluo-4 (FIG. 3B)
Description: as §1

[7] = test system: neuronal cells; experiment: MTT cell viability assay; type: cell-based
Description: as §1

CCCCc1cc(OCc2c[nH]c3ccccc23)cc(OC(=O)NCCN2CCN(C)CC2)c1 [Example 1]
Percent reversal of α-Syn mediated disruption of cell integrity (0.01 μM test compound) [1]: 26.8%

CCCCc1cc(NC(=O)NCCN2CCN(C)CC2)cc(O)c1Cc1c[nH]c2ccccc12 [Example 2, 1-(4-((1H-Indol-3-yl)methyl)-3-butyl-5-hydroxyphenyl)-3-(2-(4-methylpiperazin-1-yl)ethyl)urea]
inhibition of aggregation of α-synuclein into oligomers [2]: capable of inhibiting the aggregation of α-synuclein into oligomers in a concentration-dependent manner
reduction in the levels of aggregates in the various fractions (immunoblot) [3]: 50-60%
reduction in the level of aggregates in the neuronal cell bodies and neurites (confocal microscopy) [4]: 60-65%
effect on neurite extension and cellular morphology [5]: ameliorated the deleterious effects on neurite extension and improved cellular morphology
effect on Ca2+ levels [6]: restored concentrations of Ca^2+ to those in cells not infected with LV-α-synuclein
effect on calcein retention in the cytoplasm ([1]; 0, 0.01, 0.1 and 1 μM for 24 h in serum free media (FIG. 3C)): reversed the effect of α-synuclein on levels of calcein
Percent reversal of α-Syn mediated disruption of cell integrity (0.01 μM test compound) [1]: 34.1%
toxicity in MTT cell viability assay ([7]; at 10 μM (FIG. 3D)): mild toxicity
toxic effects in MTT cell viability assay ([7]; doses ranging from 0.1-10 μM (FIG. 3D)): no toxic effects

CCc1cc(NC(=O)NCCN2CCN(C)CC2)ccc1Cc1c[nH]c2ccccc12 [Example 3, 1-(4-((1H-indol-3-yl)methyl)-3-ethylphenyl)-3-(2-(4-methylpiperazin-1-yl)ethyl)urea]
Percent reversal of α-Syn mediated disruption of cell integrity (0.01 μM test compound) [1]: 18.9%

CCc1cc(NC(=O)NCCN)ccc1Cc1c[nH]c2ccccc12 [Example 4, 1-(4-((1H-indol-3-yl)methyl)-3-ethylphenyl)-3-(2-aminoethyl)urea]
Percent reversal of α-Syn mediated disruption of cell integrity (0.01 μM test compound) [1]: 25.9%

CCc1cc(NC(=O)NCCN2CCNCC2)ccc1Cc1c[nH]c2ccccc12 [Example 5, 1-(4-((1H-Indol-3-yl)methyl)-3-ethylphenyl)-3-(2-(piperazin-1-yl)ethyl)urea]
Percent reversal of α-Syn mediated disruption of cell integrity (0.01 μM test compound) [1]: 89.5%

CCc1cc(NC(=O)NCCc2cnc[nH]2)ccc1Cc1c[nH]c2ccccc12 [Example 6, 1-(2-(1H-imidazol-5-yl)ethyl)-3-(4-((1H-indol-3-yl)methyl)-3-ethylphenyl)urea]
Percent reversal of α-Syn mediated disruption of cell integrity (0.01 μM test compound) [1]: 37.5%

Source: patent US9527852B2 (Neuropore Therapies, Inc., priority 2012, dated 2016)
